Key:
[1] = test system: Salmonella outer membrane; test: Outer membrane permeabilization (NPN fluorescence); type: cell-based, Salmonella enterica serovar Typhimurium strain SL1344; design: key to Outer membrane permeation: +++: Effect strength is represented by additional (+) signs.; ++: Effect strength is represented by additional (+) signs.; Effect strength is represented by additional (+) signs; conditions: for Outer membrane permeation: ASO conjugated to the carrier peptide, 10 µM, NPN fluorescence, summary grade; for Outer membrane permeabilization, NPN fluorescence (in words): KFF-ASOs 10 µM, CTAB 10 µM, PMXB 0.4 µM, added after 14 min
Excerpt: Because the negASOs are ineffective in bacterial cells despite their activity in cell-free systems, we investigated if these ASOs affected the ability of the KFF carrier peptide to induce OM permeabilization. Therefore, we used the hydrophobic fluorophore N-phenylnaphthylamine (NPN), a dye that turns fluorescent after binding to hydrophobic regions within cell membranes. This only occurs in cells with a compromised OM ([Ghosh et al. 2016]; [Ellis et al. 2019]). […] However, when conjugated to negASOs, the KFF carrier is unable to permeabilize the OM (Fig. 10). This could potentially be due to electrostatic interactions between the negASOs and the positively charged KFF.
The experiments were performed by modifying previously published protocols ([Ghosh et al. 2016]; [Ellis et al. 2019]; [Zheng et al. 2021]). Salmonella (WT SL1344, JVS-1574) were grown overnight in 4 mL MHB medium at 37°C (with shaking at 220 rpm). Then the culture was diluted 1:100 and grown until OD600 0.5 (∼2 × 10^8 cfu/mL). This culture was harvested and washed two times with 5 mM HEPES and further diluted to OD600 0.2 in 5 mM HEPES supplemented with 5 mM Glucose (pH 7.2). These cells were then incubated with NPN (Sigma) at a final concentration of 10 µM. One hundred and ninety microliters of NPN-treated cells were transferred into 96-well back plates with transparent bottoms and fluorescence (excitation = 350 nm, emission = 420 nm) was recorded for 60 min (reading was performed every minute) using a Synergy H1 plate reader (Biotek). On the 14th minute, 10 µL of the test compounds (10 µM final concentration) was added into the wells. CTAB (Sigma) 10 µM (final concentration) or PMXB (Sigma) (final concentration of 0.4 µM) were used as positive controls, while water was used as negative control. The fluorescence of the wells was monitored using the same settings as above. The plots were created using OrginPro 2023. The experiment was performed twice and Figure 10 is a representative example of two independent experiments.

Salmonella periplasm = test: MALDI-TOF-based analysis of ASO-peptide conjugate uptake; type: cell-based; design: key to Uptake inside bacteria (MS): +++: Effect strength is represented by additional (+) signs.; ++: Effect strength is represented by additional (+) signs.; Effect strength is represented by additional (+) signs; conditions: 15 min; for Detection in the periplasmic fraction (in words): 10 µM KFF-ASO conjugates, MALDI MS; for Uptake inside bacteria (MS): ASO conjugated to the carrier peptide, 10 µM, MALDI-TOF of periplasm, summary grade
Experimental: Finally, to directly test if the ASO conjugates translocate into Salmonella, we used MALDI mass-spectrometry (MS) to identify ASO fragments in the bacterial periplasm after treatment with 10 µM KFF-ASO conjugates for 15 min (Table 2; Supplemental Figs. S7 and S8). […] This is in line with a study that reported that the KFF peptide is cleaved within the periplasm before translocation into the cytoplasm ([Yavari et al. 2021]). […] Importantly, none of the negASOs were detected in this subcellular fraction (Supplemental Fig. S8), likely explaining the lack of antibacterial effects against Salmonella.
The experiments were performed by modifying previously published protocols ([Yavari et al. 2021]). From an overnight culture of Salmonella, a second culture was inoculated (1:100) and grown to OD600 of 0.5 (corresponding to ∼2 × 10^8 cfu/mL). These bacterial cells were washed twice in MHB and resuspended in 95 µL of MHB with an additional incubation at 37°C for 5–10 min. Sterile ASO-peptide conjugates were prepared at concentrations of 200 µM. Five microliters of the 200 µM working solutions were added to 95 µL of bacteria in culture media, leading to a final concentration of the compounds of 10 µM. Five microliters of H2O was added as a negative control. The tubes were incubated at 37°C for 15 min with shaking at 300 rpm. Subsequently, they were centrifuged at 8000g for 5 min at 4°C. The supernatant was aspirated, and the pellet was washed with 0.01 M Tris-HCl before being resuspended in 200 µL of 0.01M Tris-HCl containing 0.5 M Sucrose, 150 µg/mL lysozyme, 10 mM EDTA and incubated at 37°C overnight. These tubes were then centrifuged at 2000g at 4°C for 10 min. The supernatant obtained represents the periplasm. The periplasm fragment was then mixed with 2,6-Dihydroxyacetophenone (DHAP) in ACN 1:1, spotted on a MALDI plate, and analyzed for MALDI-TOF-MS in a Bruker DaltonicsUltrafleXtreme Instrument. The experiment was performed two times, and data of one representative experiment are shown.

| Substance | Outer membrane permeation [1] | Outer membrane permeabilization, NPN fluorescence (in words) [1] | Detection in the periplasmic fraction (in words) (Salmonella periplasm) | Uptake inside bacteria (MS) (Salmonella periplasm) | Fragments detected (Salmonella periplasm; periplasm, 10 µM KFF-ASO conjugate, MALDI-TOF-MS) |
| --- | --- | --- | --- | --- | --- |
| PMO: phosphorodiamidate morpholino 10mer ASO, sequence CTCATACTCT, targeting acpP −5 to +5 (all phosphorodiamidate morpholino (PMO)) | ++ | this ability is retained upon conjugation | detected in the periplasmic fraction | + | only the PMO fragment was observed in the periplasm |
| PNA: peptide nucleic acid 10mer ASO, sequence CTCATACTCT, targeting acpP −5 to +5 (all peptide nucleic acid (PNA)) | ++ | this ability is retained upon conjugation | detected in the periplasmic fraction | + | – |
